# Data as given in PMC7998669, “7-(2-Anilinopyrimidin-4-yl)-1-benzazepin-2-ones Designed by a “Cut and Glue” Strategy Are Dual Aurora A/VEGF-R Kinase Inhibitors” (Molecules, 2021).
# Experiments:
# Assay in all cases: radiometric 33PanQinase protein kinase assay
# Assay type in all cases: biochemical
# Conditions in all cases: 1 µM ATP
# [1] = target: T1, CDK2/CycA (Homo sapiens, UniProt P24941)
# T1 construct: host or cells: Sf9 (baculovirus)
# [2] = target: T2, IGF1-R (Homo sapiens, UniProt P08069)
# T2 construct: host or cells: Sf9 (baculovirus)
# [3] = target: T3, SAK (Homo sapiens, UniProt O00444)
# T3 construct: host or cells: Sf9 (baculovirus)
# [4] = target: T4, SRC (Homo sapiens, UniProt P12931)
# T4 construct: host or cells: Sf9 (baculovirus)
# T4 sequence (P12931 whole entry): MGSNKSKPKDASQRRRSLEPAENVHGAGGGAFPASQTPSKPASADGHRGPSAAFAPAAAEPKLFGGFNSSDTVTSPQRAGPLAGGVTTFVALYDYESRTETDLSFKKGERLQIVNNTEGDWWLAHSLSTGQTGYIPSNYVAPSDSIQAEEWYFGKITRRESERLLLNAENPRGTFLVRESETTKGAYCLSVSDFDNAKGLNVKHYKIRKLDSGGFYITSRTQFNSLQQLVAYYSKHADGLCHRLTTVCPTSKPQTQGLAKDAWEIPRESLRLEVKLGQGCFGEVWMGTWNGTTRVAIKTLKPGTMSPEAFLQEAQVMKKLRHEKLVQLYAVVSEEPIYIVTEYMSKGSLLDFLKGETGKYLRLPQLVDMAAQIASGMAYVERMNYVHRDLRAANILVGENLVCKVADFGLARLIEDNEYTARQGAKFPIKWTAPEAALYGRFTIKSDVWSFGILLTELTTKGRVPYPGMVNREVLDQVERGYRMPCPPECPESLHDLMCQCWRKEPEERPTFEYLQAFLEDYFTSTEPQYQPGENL
# T2 sequence (P08069 31-1367): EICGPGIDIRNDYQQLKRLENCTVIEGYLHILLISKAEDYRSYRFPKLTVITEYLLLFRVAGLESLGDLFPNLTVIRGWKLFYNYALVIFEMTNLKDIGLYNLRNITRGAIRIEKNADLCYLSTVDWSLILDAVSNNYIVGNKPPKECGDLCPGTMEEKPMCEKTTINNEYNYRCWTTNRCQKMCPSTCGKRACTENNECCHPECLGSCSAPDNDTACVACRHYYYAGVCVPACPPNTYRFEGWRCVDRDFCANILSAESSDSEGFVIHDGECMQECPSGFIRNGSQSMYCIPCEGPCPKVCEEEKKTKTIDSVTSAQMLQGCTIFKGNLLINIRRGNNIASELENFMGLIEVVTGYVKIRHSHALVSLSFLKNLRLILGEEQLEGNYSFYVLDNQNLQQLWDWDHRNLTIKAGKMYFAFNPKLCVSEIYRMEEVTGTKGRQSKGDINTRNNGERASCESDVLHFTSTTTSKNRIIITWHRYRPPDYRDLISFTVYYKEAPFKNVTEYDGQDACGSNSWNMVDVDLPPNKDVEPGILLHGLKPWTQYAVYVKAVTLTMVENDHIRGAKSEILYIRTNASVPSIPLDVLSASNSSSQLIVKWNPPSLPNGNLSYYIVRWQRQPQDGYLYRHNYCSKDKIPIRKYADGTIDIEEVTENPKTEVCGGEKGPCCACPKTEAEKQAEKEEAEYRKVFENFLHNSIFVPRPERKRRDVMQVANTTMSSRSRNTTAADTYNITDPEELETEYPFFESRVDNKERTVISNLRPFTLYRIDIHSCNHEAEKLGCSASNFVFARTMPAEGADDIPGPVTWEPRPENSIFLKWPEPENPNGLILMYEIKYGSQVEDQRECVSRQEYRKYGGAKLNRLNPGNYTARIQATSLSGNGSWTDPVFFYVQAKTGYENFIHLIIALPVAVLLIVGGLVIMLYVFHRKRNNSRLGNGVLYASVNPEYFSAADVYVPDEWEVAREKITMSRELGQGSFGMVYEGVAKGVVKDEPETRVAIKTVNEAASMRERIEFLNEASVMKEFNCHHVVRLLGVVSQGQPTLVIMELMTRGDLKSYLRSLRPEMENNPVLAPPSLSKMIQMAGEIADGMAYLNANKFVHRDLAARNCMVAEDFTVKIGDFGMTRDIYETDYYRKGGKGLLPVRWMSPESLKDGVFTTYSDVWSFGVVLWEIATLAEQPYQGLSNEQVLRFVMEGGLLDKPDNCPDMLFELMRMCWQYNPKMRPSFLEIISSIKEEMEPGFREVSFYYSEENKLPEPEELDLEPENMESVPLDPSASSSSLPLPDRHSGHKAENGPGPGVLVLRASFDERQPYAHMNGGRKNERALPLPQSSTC
# T3 sequence (O00444 whole entry): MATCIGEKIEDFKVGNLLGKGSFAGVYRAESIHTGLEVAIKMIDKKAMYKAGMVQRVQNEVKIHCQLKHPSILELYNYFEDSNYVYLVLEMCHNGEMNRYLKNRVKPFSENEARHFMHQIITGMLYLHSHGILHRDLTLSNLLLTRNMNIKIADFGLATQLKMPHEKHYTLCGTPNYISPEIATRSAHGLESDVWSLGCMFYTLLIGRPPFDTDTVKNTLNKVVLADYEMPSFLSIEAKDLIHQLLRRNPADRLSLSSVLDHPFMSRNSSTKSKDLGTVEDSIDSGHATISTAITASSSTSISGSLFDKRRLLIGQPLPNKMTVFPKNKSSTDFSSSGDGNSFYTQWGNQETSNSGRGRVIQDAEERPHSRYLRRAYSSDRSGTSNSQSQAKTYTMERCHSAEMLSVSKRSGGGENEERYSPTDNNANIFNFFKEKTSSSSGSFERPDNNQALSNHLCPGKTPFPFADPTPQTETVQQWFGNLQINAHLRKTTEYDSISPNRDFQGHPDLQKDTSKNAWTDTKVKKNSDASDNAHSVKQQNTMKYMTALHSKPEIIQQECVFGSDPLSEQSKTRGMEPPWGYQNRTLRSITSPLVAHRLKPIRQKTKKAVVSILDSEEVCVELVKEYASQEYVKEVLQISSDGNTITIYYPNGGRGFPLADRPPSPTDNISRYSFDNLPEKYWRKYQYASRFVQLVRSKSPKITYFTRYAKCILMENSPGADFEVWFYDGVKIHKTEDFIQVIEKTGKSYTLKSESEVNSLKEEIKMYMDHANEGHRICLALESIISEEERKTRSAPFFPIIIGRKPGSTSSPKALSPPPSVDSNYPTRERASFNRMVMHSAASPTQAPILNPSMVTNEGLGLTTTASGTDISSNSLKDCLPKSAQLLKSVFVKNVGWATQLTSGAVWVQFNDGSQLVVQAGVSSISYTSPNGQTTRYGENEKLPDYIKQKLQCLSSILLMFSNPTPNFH
smiles,measurement,setting,value
"O=C1CCCc2cc(-c3ccnc(Nc4ccccc4)n3)ccc2N1 [Compound 2a, 7-(2-Anilinopyrimidin-4-yl)-1,3,4,5-tetrahydro-2H-1-benzazepin-2-one]",IC50,[1],60 µM
same,IC50,[2],> 100 µM
same,IC50,[3],> 100 µM
same,IC50,[4],74 µM
